Assay results as given in BigSolDB 2.1.

Clc1ncnc2nc[nH]c12
solubility (mole fraction)
Details	283.15 K	288.15 K	293.15 K	298.15 K	303.15 K	308.15 K	313.15 K	318.15 K	323.15 K	328.15 K
in DMAc	0.0175	0.0217	0.0267	0.0334	0.0411	0.0504	0.061	0.074	0.0893	0.107
in DMF	0.0555	0.0645	0.075	0.0871	0.0995	0.114	0.129	0.147	0.165	0.186
in ethanol	0.0087	0.0103	0.0122	0.0144	0.0168	0.0195	0.0226	0.026	0.0296	0.0338
in methanol	0.0112	0.0132	0.0153	0.0178	0.0204	0.0234	0.0268	0.0304	0.0345	0.0389
in water	0.00051	0.000555	0.000601	0.000658	0.000709	0.000761	0.000815	0.000873	0.000935	0.000994
